Each structure is given as a SMILES string. Where only a bound is given, the exact number is not on record here.

Results on 19 compounds are retold here after ChEMBL document CHEMBL3393019, “Synthesis and evaluation of NS5A inhibitors containing diverse heteroaromatic cores” (Bioorg Med Chem Lett, 2015).

In data set [1] the test system is Hepatitis C virus. Description: Antiviral activity against Hepatitis C virus genotype 1a infected in W11.8 cells assessed as decrease in NS5A expression in replicon cell after 4 days by luminescence based ELISA. Format: functional, Hepacivirus hominis. The note with it: subtype 1a, W11.8, 96 h.
Data set [2] in a line: Cytotoxicity against human Huh7ET cells by [3H]thymidine incorporation assay. It is filed as cell-based, Huh-7.
The subject of data set [3] is Hepatitis C virus. Description: Antiviral activity against Hepatitis C virus genotype 1b infected in human Huh-5.2 cells assessed as decrease in HCV replicon RNA replication after 4 days by luciferase assay. It is filed as functional, cell-based, Hepacivirus hominis. The note with it: Huh-5-2, 96 h.
Data set [4] can be described thus: Clearance in iv dosed rat. It is filed as ADME, organism-based. The note with it: in vivo.
Data set [5] is described as follows: Cmax in po dosed rat. It is filed as ADME, organism-based. More on the design: route oral. The note with it: in vivo.
A short description of data set [6]: Half life in iv dosed rat. The note with it: in vivo. Format: ADME, organism-based.
Data set [7] in a line: AUC (0 to 8 hrs) in po dosed rat. Details: time < 8 hr, route oral. It is filed as ADME, organism-based. The note with it: plasma.
Data set [8] is described as follows: Oral bioavailability in rat. Format: ADME, organism-based. The note with it: in vivo.
Data set [9] in a line: Volume of distribution at steady state in iv dosed rat. Format: ADME, organism-based. The note with it: in vivo, read-out: Vdss.
Data set [10] is described as follows: Half life in po dosed rat. It is filed as ADME, organism-based. The note with it: in vivo.

As for `COC(=O)N[C@H](C(=O)N1C[C@@H](C)C[C@H]1c1nc2cc(-c3ccc(-c4ccc5oc([C@@H]6C[C@H](C)CN6C(=O)[C@@H](NC(=O)OC)C(C)C)nc5c4)cc3)ccc2o1)C(C)C`, the EC50 was > 2000 nM in data set [1] and 223 nM in data set [3]. In [2], this compound showed a CC50 of 7000 nM.

Regarding `COC(=O)N[C@H](C(=O)N1C[C@@H](C)C[C@H]1c1nc2cc(-c3ccc(-c4ccc5oc([C@@H]6C[C@H](C)CN6C(=O)[C@@H](NC(=O)OC)C(C)C)nc5c4)cc3)ccc2[nH]1)C(C)C`, the EC50 in [1] was 58 nM; in data set [3], 0.017 nM. In addition, the 50% cytotoxic concentration (CC50) in data set [2] was > 20000 nM.

Turning to `COC(=O)N[C@H](C(=O)N1C[C@@H](C)C[C@H]1c1nc2cc(-c3cc4sc(-c5ccc6oc([C@@H]7C[C@H](C)CN7C(=O)[C@@H](NC(=O)OC)C(C)C)nc6c5)cc4s3)ccc2o1)C(C)C`, the EC50 was > 2000 nM in data set [1] and 23 nM in data set [3]. In data set [2], the half-maximal cytotoxic concentration (CC50) is > 20000 nM.

As to `COC(=O)N[C@H](C(=O)N1C[C@@H](C)C[C@H]1c1nc2cc(-c3cc4sc(-c5ccc6oc([C@@H]7C[C@H](C)CN7C(=O)[C@@H](NC(=O)OC)C(C)C)nc6c5)cc4s3)ccc2[nH]1)C(C)C`, the EC50 in data set [1] was found to be 0.032 nM; in data set [3] it was 0.003 nM. Moreover, the CC50 in data set [2] was > 20000 nM.

For `COC(=O)N[C@H](C(=O)N1C[C@@H](C)C[C@H]1c1nc(-c2ccc(-c3ccc(-c4ccc5oc([C@@H]6C[C@H](C)CN6C(=O)[C@@H](NC(=O)OC)C(C)C)nc5c4)cc3)cc2)c[nH]1)C(C)C`, the EC50 in [1] is 11 nM; in data set [3], 0.023 nM. The CC50 in data set [2] is > 20000 nM.

In the case of `COC(=O)N[C@H](C(=O)N1C[C@@H](C)C[C@H]1c1nc2ccc(-c3ccc(-c4ccc5nc([C@@H]6C[C@H](C)CN6C(=O)[C@@H](NC(=O)OC)C(C)C)oc5c4)cc3)cc2o1)C(C)C`, the results for the EC50 in [1] and in [3] were 630 nM and 0.006 nM, respectively. In addition, half-maximal cytotoxicity in data set [2] (CC50) was put at 7000 nM.

Turning to `COC(=O)N[C@H](C(=O)N1C[C@@H](C)C[C@H]1c1nc2cc(-c3ccc(-c4ccc5nc([C@@H]6C[C@H](C)CN6C(=O)[C@@H](NC(=O)OC)C(C)C)oc5c4)cc3)ccc2[nH]1)C(C)C`, the 50% effective concentration (EC50) in [1] was determined as 1.8 nM; in [3], 0.008 nM. The CC50 in data set [2] is > 20000 nM.

In the case of `COC(=O)N[C@H](C(=O)N1C[C@@H](C)C[C@H]1c1nc2ccc(-c3cc4sc(-c5ccc6nc([C@@H]7C[C@H](C)CN7C(=O)[C@@H](NC(=O)OC)C(C)C)oc6c5)cc4s3)cc2o1)C(C)C`, the EC50 in data set [1] is 43 nM; in data set [3] it was 0.019 nM. In data set [2], the CC50 was > 20000 nM.

In data set [4], `COC(=O)N[C@H](C(=O)N1C[C@@H](C)C[C@H]1c1nc2cc(-c3cc4sc(-c5ccc6nc([C@@H]7C[C@H](C)CN7C(=O)[C@@H](NC(=O)OC)C(C)C)oc6c5)cc4s3)ccc2[nH]1)C(C)C` gave a clearance of 6.2 mL/min/kg. The concentration in data set [5] peaked (Cmax) at 0.01 ng/mL. The half-life in data set [6] is 5.6 h; in data set [10], 14.8 h. In addition, the AUC(0-t) at 8 h in data set [7] came out at 376 ng·h/mL. Moreover, in data set [8], the bioavailability was found to be 7.3%. Moreover, the EC50 was 0.029 nM in data set [1] and 0.004 nM in [3]. The Vd in data set [9] came to 2.8 L/kg. The half-maximal cytotoxic concentration (CC50) in data set [2] was > 20000 nM.

As for `COC(=O)N[C@H](C(=O)N1C[C@@H](C)C[C@H]1c1nc(-c2ccc(-c3ccc(-c4ccc5nc([C@@H]6C[C@H](C)CN6C(=O)[C@@H](NC(=O)OC)C(C)C)oc5c4)cc3)cc2)c[nH]1)C(C)C`, the values for the EC50 in data set [1] and in data set [3] were 0.164 nM and 0.005 nM, respectively. Further, the CC50 in [2] is > 20000 nM.

For the compound `COC(=O)N[C@H](C(=O)N1C[C@@H](C)C[C@H]1c1ncc(-c2cc3sc(-c4ccc5[nH]c([C@@H]6C[C@H](C)CN6C(=O)[C@@H](NC(=O)OC)C(C)C)nc5c4)cc3s2)[nH]1)C(C)C`, the results for the EC50 in [1] and in [3] were 0.021 nM and 0.016 nM, respectively. For the same compound, in data set [2], the CC50 was > 20000 nM.

In data set [4], `COC(=O)N[C@H](C(=O)N1C[C@@H](C)C[C@H]1c1ncc(-c2ccc(-c3cc4sc(-c5ccc6[nH]c([C@@H]7C[C@H](C)CN7C(=O)[C@@H](NC(=O)OC)C(C)C)nc6c5)cc4s3)cc2)[nH]1)C(C)C` registered a clearance of 8.1 mL/min/kg. This compound also gave a Cmax in data set [5] of 0.01 ng/mL. In addition, the results for the half-life in data set [6] and in [10] were 3.5 h and 17.2 h, respectively. The same compound displayed an AUC(0-t) at 8 h in data set [7] of 281 ng·h/mL. For the same compound, the bioavailability in [8] turned out to be 8.4%. In addition, the half-maximal effective concentration (EC50) in data set [1] was determined as 0.008 nM; in data set [3], 0.006 nM. Also, in data set [9], the Vd came to 1.6 L/kg. The CC50 in data set [2] was > 20000 nM.

With `COC(=O)N[C@H](C(=O)N1C[C@@H](C)C[C@H]1c1nc2cc(-c3cc4sc(-c5ccc6nc([C@@H]7C[C@H](C)CN7C(=O)[C@@H](NC(=O)OC)C(C)C)[nH]c6c5)cc4s3)ccc2[nH]1)C(C)C`, the EC50 turned out to be 0.004 nM in data set [1] and 0.009 nM in data set [3]. Also, the 50% cytotoxic concentration (CC50) in [2] was > 20000 nM.

In the case of `COC(=O)N[C@H](C(=O)N1C[C@@H](C)C[C@H]1c1nc2cc(-c3cc4sc(-c5ccc6nc([C@@H]7C[C@H](C)CN7C(=O)[C@@H](NC(=O)OC)C(C)C)n(C)c6c5)cc4s3)ccc2[nH]1)C(C)C`, the EC50 in data set [1] was 0.024 nM; in data set [3] it was 0.004 nM. Further, the CC50 in [2] is > 20000 nM.

For the compound `COC(=O)N[C@H](C(=O)N1C[C@@H](C)C[C@H]1c1nc2cc(-c3cc4sc(-c5cc6nc([C@@H]7C[C@H](C)CN7C(=O)[C@@H](NC(=O)OC)C(C)C)[nH]c6s5)cc4s3)ccc2[nH]1)C(C)C`, the results for the EC50 in data set [1] and in data set [3] were 0.011 nM and 0.004 nM, respectively. Further, in data set [2], the CC50 is > 20000 nM.

Take `COC(=O)N[C@H](C(=O)N1C[C@@H](C)C[C@H]1c1cc2cc(-c3cc4sc(-c5ccc6[nH]c([C@@H]7C[C@H](C)CN7C(=O)[C@@H](NC(=O)OC)C(C)C)nc6c5)cc4s3)ccc2[nH]1)C(C)C`: the results for the EC50 in [1] and in data set [3] were 1.3 nM and 0.006 nM, respectively. The CC50 in data set [2] was > 20000 nM.

Regarding `COC(=O)N[C@H](C(=O)N1C[C@@H](C)C[C@H]1c1cc2ccc(-c3cc4sc(-c5ccc6[nH]c([C@@H]7C[C@H](C)CN7C(=O)[C@@H](NC(=O)OC)C(C)C)nc6c5)cc4s3)cc2[nH]1)C(C)C`, the clearance in [4] was 4.7 mL/min/kg. Besides, in [5], the peak level (Cmax) was 0.02 ng/mL. Besides, the half-life in [6] is 4.6 h; in [10], 16.6 h. The compound also yielded an AUC(0-t) at 8 h in data set [7] of 659 ng·h/mL. The same compound registered a bioavailability in [8] of 8.4%. Also, the EC50 is 0.02 nM in data set [1] and 0.006 nM in [3]. Further, the Vd in data set [9] is 1.6 L/kg. Besides, the half-maximal cytotoxic concentration (CC50) in data set [2] is > 20000 nM.

With `COC(=O)N[C@H](C(=O)N1C[C@@H](C)C[C@H]1c1nc2cc(-c3cc4sc(-c5ccc6sc([C@@H]7C[C@H](C)CN7C(=O)[C@@H](NC(=O)OC)C(C)C)nc6c5)cc4s3)ccc2[nH]1)C(C)C`, the EC50 in data set [1] was 6.8 nM; in data set [3], 0.025 nM. Also, in data set [2], the CC50 is > 20000 nM.

As for `COC(=O)N[C@H](C(=O)N1C[C@@H](C)C[C@H]1c1cn2cc(-c3cc4sc(-c5ccc6[nH]c([C@@H]7C[C@H](C)CN7C(=O)[C@@H](NC(=O)OC)C(C)C)nc6c5)cc4s3)ccc2n1)C(C)C`, the EC50 in data set [1] stood at 0.006 nM; in data set [3], 0.004 nM. Also, in data set [2], the CC50 worked out at 8000 nM.
